US4209443A, “Process for separating pharmaceutically active diindole alkaloids” (priority 1976, dated 1980)
Where a name gives a salt, the structure may show the parent alone.

Experiments:
[1] = test system: L 1210/Ref (vinca-refractory) mouse lymphoid leukemia; test: Average survival prolongation and tumor-inhibiting effect, L 1210/Ref (vinca-refractory) lymphoid leukemia, i.p.; assay type: in vivo, mouse (BDF1 mice); settings: for On the limit-day (days 36 to day 40): lives / On the limit-day (days 36 to day 40): tumor-free / T/c × 100 / Average survival period, treated: 7 treatments; for Average survival period, treated: control 8.0 days
Procedure: (§1) The pharmacological tests were performed on transplantable tumors of rats and mice. The effects on L 1210/VS(vinca-sensitive) mouse lymphoid leukemia and L 1210/Ref (vinca-refractory) mouse lymphoid leukemia were tested on BDF1 mice, the effects on Ehrlich ascites carcinomatous tumors and S 37 ascites sarcomatous tumors were examined on Swiss mice, whereas the effects on Novikoff hepatoma were examined on Wistar rats.
(§2) The 4-deacetoxy-vinblastine sulfate was dissolved in physiological saline and the solution was administered intraperitoneally into the animals to be tested. In the tests the average prolongation of survival period and the tumor-inhibiting effect were examined in relation to the untreated controls. In the Table the symbol T/c represents the ratio of treated animals to the controls, and the term "number of limit-days" means the fourfold of the average survival period observed in the control group.

[2] = test system: transplantable tumors of rats and mice; test: Tumor-inhibiting effect on transplantable tumors of rats and mice; assay type: in vivo
Procedure: as §1, §2

[3] = Toxicity (LD50, i.p., mice); settings: mouse, in vivo, ip
Novikoff hepatoma = test: Average survival prolongation and tumor-inhibiting effect, Novikoff hepatoma, i.p.; assay type: in vivo, rat (Wistar rats); settings: for On the limit-day (days 36 to day 40): lives / On the limit-day (days 36 to day 40): tumor-free / T/c × 100 / Average survival period, treated: once a day, 8 treatments
Procedure: as §1, §2

S 37 ascites sarcoma = test: Average survival prolongation and tumor-inhibiting effect, S 37 ascites sarcoma, i.p.; assay type: in vivo, mouse (Swiss mice); settings: once a day, 8 treatments; for Average survival period, treated: control 18.2 days
Procedure: as §1, §2

[4] = test system: L 1210/VS (vinca-sensitive) mouse lymphoid leukemia; test: Average survival prolongation and tumor-inhibiting effect, L 1210/VS (vinca-sensitive) lymphoid leukemia, i.p.; assay type: in vivo, mouse (BDF1 mice)
Procedure: as §1, §2

[5] = Neurotoxicity accompanied with paralytic symptoms; assay type: in vivo; settings: during administration
mice = test: Toxicity (LD50, i.p., mice)
[6] = test system: Ehrlich ascites carcinoma; test: Average survival prolongation and tumor-inhibiting effect, Ehrlich ascites carcinoma, i.p.; assay type: in vivo, mouse (Swiss mice); settings: 3.0 mg/kg i.p., once a day, 9 treatments
Procedure: as §1, §2

HK/Ly ascites lymphoma = test: Average survival prolongation and tumor-inhibiting effect, HK/Ly ascites lymphoma, i.p.; assay type: in vivo; settings: once a day, 8 treatments; for Average survival period, treated: control 14.4 days
Procedure: as §2

[7] = test system: tumors resistant towards the cytostatic agents known before; settings: Hungarian Patent specification No. 165,986; cited from earlier work
in vivo = settings: mouse, ip
[8] = known vinca alkaloids; cited from earlier work
[9] = 4.0 mg/kg i.p., once in every two days
[10] = 0.9 mg/kg i.p., once a day, 7 treatments
[11] = 1.8 mg/kg i.p., once a day, 7 treatments
[12] = 2.0 mg/kg i.p., once a day, 16 treatments
[13] = 4.0 mg/kg i.p., once a day, 16 treatments
[14] = 4.0 mg/kg i.p., once in every two days, 8 treatments
[15] = 4.0 mg/kg i.p., once in every two days, 11 treatments
[16] = 5.0 mg/kg i.p., once in every two days, 8 treatments
[17] = 6.0 mg/kg i.p., once in every two days, 8 treatments

CC[C@]1(O)C[C@@H]2CN(CCc3c([nH]c4ccccc34)[C@@](C(=O)OC)(c3cc4c(cc3OC)N(C)[C@@H]3[C@]45CCN4CC=C[C@@](CC)(C[C@]3(O)C(=O)OC)[C@H]45)C2)C1 [4-Deacetoxy-vinblastine, 4-deacetoxy-vinblastine]
sensitivity of L 1210/Ref leukemia ([1]; mouse, in vivo): not sensitive | inhibiting effect on all the other transplanted tumors ([2]; all transplanted tumors other than L 1210/Ref): significant dosage-dependent inhibiting effect | LD50 [3]: > 23 mg/kg | inhibiting effect on Novikoff hepatoma (Novikoff hepatoma; relative to the other transplanted tumors): most intensive

CC[C@]1(O)C[C@@H]2CN(CCc3c([nH]c4ccccc34)[C@@](C(=O)OC)(c3cc4c(cc3OC)N(C)[C@@H]3[C@]45CCN4CC=C[C@@](CC)(C[C@]3(O)C(=O)OC)[C@H]45)C2)C1 [4-deacetoxy-vinblastine sulfate, 4-Deacetoxy-vinblastine sulfate]
On the limit-day (days 36 to day 40): lives (S 37 ascites sarcoma; 1.8 mg/kg i.p.): 6/8 | On the limit-day (days 36 to day 40): tumor-free (S 37 ascites sarcoma; 1.8 mg/kg i.p.): 6/8 | T/c × 100 (S 37 ascites sarcoma; 1.8 mg/kg i.p.): 376 | Average survival period, treated (S 37 ascites sarcoma; 1.8 mg/kg i.p.): 68.5 days | On the limit-day (days 36 to day 40): lives (S 37 ascites sarcoma; 2.7 mg/kg i.p.): 7/10 | On the limit-day (days 36 to day 40): tumor-free (S 37 ascites sarcoma; 2.7 mg/kg i.p.): 7/10 | T/c × 100 (S 37 ascites sarcoma; 2.7 mg/kg i.p.): 373 | Average survival period, treated (S 37 ascites sarcoma; 2.7 mg/kg i.p.): 67.9 days | On the limit-day (days 36 to day 40): lives ([1]; 2.0 mg/kg i.p., once a day): 0/6 | On the limit-day (days 36 to day 40): tumor-free ([1]; 2.0 mg/kg i.p., once a day): 0/6 | T/c × 100 ([1]; 2.0 mg/kg i.p., once a day): 119 | Average survival period, treated ([1]; 2.0 mg/kg i.p., once a day): 9.5 days | On the limit-day (days 36 to day 40): lives ([1]; 4.0 mg/kg i.p., once a day): 0/6 | On the limit-day (days 36 to day 40): tumor-free ([1]; 4.0 mg/kg i.p., once a day): 0/6 | T/c × 100 ([1]; 4.0 mg/kg i.p., once a day): 144 | Average survival period, treated ([1]; 4.0 mg/kg i.p., once a day): 11.5 days | On the limit-day (days 36 to day 40): lives [1, 9]: 0/6 | On the limit-day (days 36 to day 40): tumor-free [1, 9]: 0/6 | T/c × 100 [1, 9]: 146 | Average survival period, treated [1, 9]: 11.7 days | On the limit-day (days 36 to day 40): lives [4, 10]: 0/6 | On the limit-day (days 36 to day 40): tumor-free [4, 10]: 0/6 | T/c × 100 [4, 10]: 128 | Average survival period, treated ([4]; 0.9 mg/kg i.p., once a day, 7 treatments, control 8.8 days): 11.5 days | On the limit-day (days 36 to day 40): lives [4, 11]: 0/6 | On the limit-day (days 36 to day 40): tumor-free [4, 11]: 0/6 | T/c × 100 [4, 11]: 128 | Average survival period, treated ([4]; 1.8 mg/kg i.p., once a day, 7 treatments, control 8.8 days): 11.3 days | On the limit-day (days 36 to day 40): lives [4, 12]: 0/6 | On the limit-day (days 36 to day 40): tumor-free [4, 12]: 0/6 | T/c × 100 [4, 12]: 238 | Average survival period, treated ([4]; 2.0 mg/kg i.p., once a day, 16 treatments, control 10.3 days): 24.5 days | On the limit-day (days 36 to day 40): lives [4, 13]: 0/6 | On the limit-day (days 36 to day 40): tumor-free [4, 13]: 0/6 | T/c × 100 [4, 13]: 269 | Average survival period, treated ([4]; 4.0 mg/kg i.p., once a day, 16 treatments, control 10.3 days): 27.7 days | On the limit-day (days 36 to day 40): lives [4, 14]: 0/6 | On the limit-day (days 36 to day 40): tumor-free [4, 14]: 0/6 | T/c × 100 [4, 14]: 213 | Average survival period, treated ([4]; 4.0 mg/kg i.p., once in every two days, 8 treatments, control 8.3 days): 17.7 days | On the limit-day (days 36 to day 40): lives [4, 15]: 0/6 | On the limit-day (days 36 to day 40): tumor-free [4, 15]: 0/6 | T/c × 100 [4, 15]: 267 | Average survival period, treated ([4]; 4.0 mg/kg i.p., once in every two days, 11 treatments, control 10.3 days): 27.5 days | On the limit-day (days 36 to day 40): lives [4, 16]: 0/6 | On the limit-day (days 36 to day 40): tumor-free [4, 16]: 0/6 | T/c × 100 [4, 16]: 251 | Average survival period, treated ([4]; 5.0 mg/kg i.p., once in every two days, 8 treatments, control 8.3 days): 20.8 days | On the limit-day (days 36 to day 40): lives [4, 17]: 0/6 | On the limit-day (days 36 to day 40): tumor-free [4, 17]: 0/6 | T/c × 100 [4, 17]: 291 | Average survival period, treated ([4]; 6.0 mg/kg i.p., once in every two days, 8 treatments, control 8.3 days): 24.2 days | Neurotoxicity accompanied with paralytic symptoms [5]: does not appear at all | tumor-inhibiting effects compared with vinblastine ([2]; compared with vinblastine): roughly identical with those of vinblastine | toxicity compared with vinblastine (mice; compared with vinblastine): far less toxic than vinblastine | On the limit-day (days 36 to day 40): lives (Novikoff hepatoma; 0.5 mg/kg i.p.): 0/6 | On the limit-day (days 36 to day 40): tumor-free (Novikoff hepatoma; 0.5 mg/kg i.p.): 0/6 | T/c × 100 (Novikoff hepatoma; 0.5 mg/kg i.p.): 126 | Average survival period, treated (Novikoff hepatoma; 0.5 mg/kg i.p., control 8.2 days): 10.3 days | On the limit-day (days 36 to day 40): lives (Novikoff hepatoma; 1.0 mg/kg i.p.): 1/6 | On the limit-day (days 36 to day 40): tumor-free (Novikoff hepatoma; 1.0 mg/kg i.p.): 1/6 | T/c × 100 (Novikoff hepatoma; 1.0 mg/kg i.p.): 338 | Average survival period, treated (Novikoff hepatoma; 1.0 mg/kg i.p., control 8.2 days): 27.7 days | On the limit-day (days 36 to day 40): lives (Novikoff hepatoma; 1.5 mg/kg i.p.): 2/6 | On the limit-day (days 36 to day 40): tumor-free (Novikoff hepatoma; 1.5 mg/kg i.p.): 0/6 | T/c × 100 (Novikoff hepatoma; 1.5 mg/kg i.p.): 317 | Average survival period, treated (Novikoff hepatoma; 1.5 mg/kg i.p., control 7.8 days): 24.7 days | On the limit-day (days 36 to day 40): lives [6]: 10/10 | On the limit-day (days 36 to day 40): tumor-free [6]: 6/10 | T/c × 100 [6]: 174 | Average survival period, treated ([6]; control 17.4 days): 30 days | On the limit-day (days 36 to day 40): lives (HK/Ly ascites lymphoma; 2.0 mg/kg i.p.): 0/10 | On the limit-day (days 36 to day 40): tumor-free (HK/Ly ascites lymphoma; 2.0 mg/kg i.p.): 0/10 | T/c × 100 (HK/Ly ascites lymphoma; 2.0 mg/kg i.p.): 334 | Average survival period, treated (HK/Ly ascites lymphoma; 2.0 mg/kg i.p.): 48.1 days | On the limit-day (days 36 to day 40): lives (HK/Ly ascites lymphoma; 4.0 mg/kg i.p.): 6/10 | On the limit-day (days 36 to day 40): tumor-free (HK/Ly ascites lymphoma; 4.0 mg/kg i.p.): 0/10 | T/c × 100 (HK/Ly ascites lymphoma; 4.0 mg/kg i.p.): 382 | Average survival period, treated (HK/Ly ascites lymphoma; 4.0 mg/kg i.p.): 55.0 days | On the limit-day (days 36 to day 40): lives (HK/Ly ascites lymphoma; 6.0 mg/kg i.p.): 0/10 | On the limit-day (days 36 to day 40): tumor-free (HK/Ly ascites lymphoma; 6.0 mg/kg i.p.): 0/10 | T/c × 100 (HK/Ly ascites lymphoma; 6.0 mg/kg i.p.): 328 | Average survival period, treated (HK/Ly ascites lymphoma; 6.0 mg/kg i.p.): 47.2 days

CC[C@]12CN3CCc4c([nH]c5ccccc45)[C@@](C(=O)OC)(c4cc5c(cc4OC)N(C=O)[C@H]4[C@@](O)(C(=O)OC)[C@H](OC(C)=O)[C@]6(CC)C=CCN7CC[C@]54[C@@H]76)C[C@@H](C3)[C@H]1O2 [N-Formyl-leurosine, reference compound]
LD50 (mice; i.p., mice): 29.0 mg/kg | growth inhibition of tumors resistant towards the cytostatic agents known before [7]: inhibits the growth of tumors resistant towards the cytostatic agents known before

CC[C@]1(O)C[C@@H]2CN(CCc3c([nH]c4ccccc34)[C@@](C(=O)OC)(c3cc4c(cc3OC)N(C)[C@H]3[C@@](O)(C(=O)OC)[C@H](OC(C)=O)[C@]5(CC)C=CCN6CC[C@]43[C@@H]65)C2)C1 [Vinblastine, vinblastine]
LD50 (in vivo): 7.5 mg/kg | Neurotoxicity accompanied with paralytic symptoms (known side-effect) [8]: characteristic adverse side-effect

CC[C@]1(O)C[C@H]2CN(CCc3c([nH]c4ccccc34)[C@@](C(=O)OC)(c3cc4c(cc3OC)N(C=O)[C@H]3[C@@](O)(C(=O)OC)[C@H](OC(C)=O)[C@]5(CC)C=CCN6CC[C@]43[C@@H]65)C2)C1 [Vincristine, vincristine, reference compound]
LD50 [3]: 4.2 mg/kg | Neurotoxicity accompanied with paralytic symptoms (known side-effect) [8]: characteristic adverse side-effect
